Results from US11793849B2, “Method of Chinese herbal medicine extract used for treating multiple diseases caused by drug resistant bacteria infection” (priority 2016, dated 2023).

Tested on: MDRAB
Assay: Checkerboard assay (combined-use MIC, FIC)
Type: cell-based, Acinetobacter baumannii
Details: for FIC, all strains / MIC50 of the antibiotic after combined use / MIC90 of the antibiotic after combined use / reduction of the antibiotic's MIC50 vs single use / reduction of the antibiotic's MIC90 vs single use / share of strains with FIC ≤ 0.5: 20 MDRABs
Procedure, shortened: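 Checkerboard combinations of S20b and antibiotic run per NCCLS method against ESBL E. coli, MDR A. baumannii and MDR P. aeruginosa.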

[1] = antibiotic with 60% ethanol extract
[2] = antibiotic with 95% ethanol extract
[3] = antibiotic with EA (10% ethanol extract)
[4] = antibiotic with EA (water extract)

Polymycin B [POLB]
FIC, all strains [1]: ≤ 2 | MIC50 of the antibiotic after combined use [1]: 0.5 µg/mL | MIC90 of the antibiotic after combined use [1]: 4 µg/mL | reduction of the antibiotic's MIC50 vs single use [1]: 87.5% | reduction of the antibiotic's MIC90 vs single use [1]: 75% | share of strains with FIC ≤ 0.5 [1]: 15% | FIC, all strains [2]: ≤ 2 | MIC50 of the antibiotic after combined use [2]: 1 µg/mL | MIC90 of the antibiotic after combined use [2]: 4 µg/mL | reduction of the antibiotic's MIC50 vs single use [2]: 75% | reduction of the antibiotic's MIC90 vs single use [2]: 75% | share of strains with FIC ≤ 0.5 [2]: 20% | FIC, all strains [3]: ≤ 2 | MIC50 of the antibiotic after combined use [3]: 1 µg/mL | MIC90 of the antibiotic after combined use [3]: 4 µg/mL | reduction of the antibiotic's MIC50 vs single use [3]: 75% | reduction of the antibiotic's MIC90 vs single use [3]: 75% | share of strains with FIC ≤ 0.5 [3]: 15% | FIC, all strains [4]: ≤ 2 | MIC50 of the antibiotic after combined use [4]: 1 µg/mL | MIC90 of the antibiotic after combined use [4]: 4 µg/mL | reduction of the antibiotic's MIC50 vs single use [4]: 75% | reduction of the antibiotic's MIC90 vs single use [4]: 75% | share of strains with FIC ≤ 0.5 [4]: 25% | combined-use MIC (strain A1, EA (10% ethanol extract) with POLB): 4 µg/mL | combined-use MIC (strain A1, EA (60% ethanol extract) + POLB combined): 4 µg/mL | combined-use MIC (strain A1, EA (95% ethanol extract) + POLB combined): 4 µg/mL | combined-use MIC (strain A1, EA (water extract) with POLB): 4 µg/mL | single-use MIC (strain A1, EA=60% ethanol extract): 8 µg/mL | single-use MIC (strain A1, EA=95% ethanol extract): 8 µg/mL | combined-use MIC (strain A2, EA (10% ethanol extract) with POLB): 1 µg/mL | combined-use MIC (strain A2, EA (60% ethanol extract) + POLB combined): 0.5 µg/mL | combined-use MIC (strain A2, EA (95% ethanol extract) + POLB combined): 0.5 µg/mL | combined-use MIC (strain A2, EA (water extract) with POLB): 1 µg/mL | single-use MIC (strain A2, EA=60% ethanol extract): 2 µg/mL | single-use MIC (strain A2, EA=95% ethanol extract): 2 µg/mL | combined-use MIC (strain A3, EA (10% ethanol extract) with POLB): 1 µg/mL | combined-use MIC (strain A3, EA (60% ethanol extract) + POLB combined): 1 µg/mL | combined-use MIC (strain A3, EA (95% ethanol extract) + POLB combined): 1 µg/mL | combined-use MIC (strain A3, EA (water extract) with POLB): 0.5 µg/mL | single-use MIC (strain A3, EA=60% ethanol extract): 2 µg/mL | single-use MIC (strain A3, EA=95% ethanol extract): 2 µg/mL | combined-use MIC (strain A4, EA (10% ethanol extract) with POLB): 1 µg/mL | combined-use MIC (strain A4, EA (60% ethanol extract) + POLB combined): 1 µg/mL | combined-use MIC (strain A4, EA (95% ethanol extract) + POLB combined): 1 µg/mL | combined-use MIC (strain A4, EA (water extract) with POLB): 0.5 µg/mL | single-use MIC (strain A4, EA=60% ethanol extract): 2 µg/mL | single-use MIC (strain A4, EA=95% ethanol extract): 2 µg/mL | single-use MIC (strain A5 (printed AS in tables A43, A45), EA=95% ethanol extract): 4 µg/mL | combined-use MIC (strain A5, EA (10% ethanol extract) with POLB): 1 µg/mL | combined-use MIC (strain A5, EA (60% ethanol extract) + POLB combined): 2 µg/mL | combined-use MIC (strain A5, EA (water extract) with POLB): 0.5 µg/mL | single-use MIC (strain A5, EA=60% ethanol extract): 4 µg/mL | combined-use MIC (strain A6, EA (10% ethanol extract) with POLB): 1 µg/mL | combined-use MIC (strain A6, EA (60% ethanol extract) + POLB combined): 2 µg/mL | combined-use MIC (strain A6, EA (95% ethanol extract) + POLB combined): 2 µg/mL | combined-use MIC (strain A6, EA (water extract) with POLB): 2 µg/mL | single-use MIC (strain A6, EA=60% ethanol extract): 8 µg/mL | single-use MIC (strain A6, EA=95% ethanol extract): 8 µg/mL | combined-use MIC (strain A7, EA (10% ethanol extract) with POLB): 1 µg/mL | combined-use MIC (strain A7, EA (60% ethanol extract) + POLB combined): 2 µg/mL | combined-use MIC (strain A7, EA (95% ethanol extract) + POLB combined): 2 µg/mL | combined-use MIC (strain A7, EA (water extract) with POLB): 1 µg/mL | single-use MIC (strain A7, EA=60% ethanol extract): 4 µg/mL | single-use MIC (strain A7, EA=95% ethanol extract): 4 µg/mL | combined-use MIC (strain A8, EA (10% ethanol extract) with POLB): 0.0625 µg/mL | combined-use MIC (strain A8, EA (60% ethanol extract) + POLB combined): 0.0625 µg/mL | combined-use MIC (strain A8, EA (95% ethanol extract) + POLB combined): 1 µg/mL | combined-use MIC (strain A8, EA (water extract) with POLB): 0.0625 µg/mL | single-use MIC (strain A8, EA=60% ethanol extract): 8 µg/mL | single-use MIC (strain A8, EA=95% ethanol extract): 8 µg/mL | combined-use MIC (strain A9, EA (10% ethanol extract) with POLB): 0.0625 µg/mL | combined-use MIC (strain A9, EA (60% ethanol extract) + POLB combined): 0.0625 µg/mL | combined-use MIC (strain A9, EA (95% ethanol extract) + POLB combined): 0.25 µg/mL | combined-use MIC (strain A9, EA (water extract) with POLB): 0.0625 µg/mL | single-use MIC (strain A9, EA=60% ethanol extract): 1 µg/mL | single-use MIC (strain A9, EA=95% ethanol extract): 1 µg/mL | combined-use MIC (strain A10, EA (10% ethanol extract) with POLB): 4 µg/mL | combined-use MIC (strain A10, EA (60% ethanol extract) + POLB combined): 8 µg/mL | combined-use MIC (strain A10, EA (95% ethanol extract) + POLB combined): 8 µg/mL | combined-use MIC (strain A10, EA (water extract) with POLB): 8 µg/mL | single-use MIC (strain A10, EA=60% ethanol extract): 32 µg/mL | single-use MIC (strain A10, EA=95% ethanol extract): 32 µg/mL | combined-use MIC (strain A11, EA (10% ethanol extract) with POLB): 8 µg/mL | combined-use MIC (strain A11, EA (60% ethanol extract) + POLB combined): 4 µg/mL | combined-use MIC (strain A11, EA (95% ethanol extract) + POLB combined): 4 µg/mL | combined-use MIC (strain A11, EA (water extract) with POLB): 4 µg/mL | single-use MIC (strain A11, EA=60% ethanol extract): 16 µg/mL | single-use MIC (strain A11, EA=95% ethanol extract): 16 µg/mL | combined-use MIC (strain A12, EA (10% ethanol extract) with POLB): 1 µg/mL | combined-use MIC (strain A12, EA (60% ethanol extract) + POLB combined): 0.5 µg/mL | combined-use MIC (strain A12, EA (95% ethanol extract) + POLB combined): 1 µg/mL | combined-use MIC (strain A12, EA (water extract) with POLB): 0.0625 µg/mL | single-use MIC (strain A12, EA=60% ethanol extract): 2 µg/mL | single-use MIC (strain A12, EA=95% ethanol extract): 2 µg/mL | combined-use MIC (strain A13, EA (10% ethanol extract) with POLB): 1 µg/mL | combined-use MIC (strain A13, EA (60% ethanol extract) + POLB combined): 1 µg/mL | combined-use MIC (strain A13, EA (95% ethanol extract) + POLB combined): 1 µg/mL | combined-use MIC (strain A13, EA (water extract) with POLB): 1 µg/mL | single-use MIC (strain A13, EA=60% ethanol extract): 2 µg/mL | single-use MIC (strain A13, EA=95% ethanol extract): 2 µg/mL | combined-use MIC (strain A14, EA (10% ethanol extract) with POLB): 0.0625 µg/mL | combined-use MIC (strain A14, EA (60% ethanol extract) + POLB combined): 0.0625 µg/mL | combined-use MIC (strain A14, EA (95% ethanol extract) + POLB combined): 0.25 µg/mL | combined-use MIC (strain A14, EA (water extract) with POLB): 0.0625 µg/mL | single-use MIC (strain A14, EA=60% ethanol extract): 0.5 µg/mL | single-use MIC (strain A14, EA=95% ethanol extract): 0.5 µg/mL | combined-use MIC (strain A15, EA (10% ethanol extract) with POLB): 1 µg/mL | combined-use MIC (strain A15, EA (60% ethanol extract) + POLB combined): 0.0625 µg/mL | combined-use MIC (strain A15, EA (95% ethanol extract) + POLB combined): 0.0625 µg/mL | combined-use MIC (strain A15, EA (water extract) with POLB): 0.0625 µg/mL | single-use MIC (strain A15, EA=60% ethanol extract): 2 µg/mL | single-use MIC (strain A15, EA=95% ethanol extract): 2 µg/mL | combined-use MIC (strain A16, EA (10% ethanol extract) with POLB): 1 µg/mL | combined-use MIC (strain A16, EA (60% ethanol extract) + POLB combined): 0.0625 µg/mL | combined-use MIC (strain A16, EA (95% ethanol extract) + POLB combined): 0.0625 µg/mL | combined-use MIC (strain A16, EA (water extract) with POLB): 0.0625 µg/mL | single-use MIC (strain A16, EA=60% ethanol extract): 4 µg/mL | single-use MIC (strain A16, EA=95% ethanol extract): 4 µg/mL | combined-use MIC (strain A17, EA (10% ethanol extract) with POLB): 16 µg/mL | combined-use MIC (strain A17, EA (60% ethanol extract) + POLB combined): 2 µg/mL | combined-use MIC (strain A17, EA (95% ethanol extract) + POLB combined): 4 µg/mL | combined-use MIC (strain A17, EA (water extract) with POLB): 2 µg/mL | single-use MIC (strain A17, EA=60% ethanol extract): 64 µg/mL | single-use MIC (strain A17, EA=95% ethanol extract): 64 µg/mL | combined-use MIC (strain A18, EA (10% ethanol extract) with POLB): 1 µg/mL | combined-use MIC (strain A18, EA (60% ethanol extract) + POLB combined): 0.5 µg/mL | combined-use MIC (strain A18, EA (95% ethanol extract) + POLB combined): 1 µg/mL | combined-use MIC (strain A18, EA (water extract) with POLB): 2 µg/mL | single-use MIC (strain A18, EA=60% ethanol extract): 4 µg/mL | single-use MIC (strain A18, EA=95% ethanol extract): 4 µg/mL | combined-use MIC (strain A19, EA (10% ethanol extract) with POLB): 1 µg/mL | combined-use MIC (strain A19, EA (60% ethanol extract) + POLB combined): 0.5 µg/mL | combined-use MIC (strain A19, EA (95% ethanol extract) + POLB combined): 1 µg/mL | combined-use MIC (strain A19, EA (water extract) with POLB): 2 µg/mL | single-use MIC (strain A19, EA=60% ethanol extract): 4 µg/mL | single-use MIC (strain A19, EA=95% ethanol extract): 4 µg/mL | combined-use MIC (strain A20, EA (10% ethanol extract) with POLB): 1 µg/mL | combined-use MIC (strain A20, EA (60% ethanol extract) + POLB combined): 0.5 µg/mL | combined-use MIC (strain A20, EA (95% ethanol extract) + POLB combined): 0.5 µg/mL | combined-use MIC (strain A20, EA (water extract) with POLB): 1 µg/mL | single-use MIC (strain A20, EA=60% ethanol extract): 2 µg/mL | single-use MIC (strain A20, EA=95% ethanol extract): 2 µg/mL | combined-use MIC (strain AS, EA (95% ethanol extract) + POLB combined): 2 µg/mL
